Measurements from ChEMBL document CHEMBL1129469, “Nonpeptide angiotensin II receptor antagonists: the next generation in antihypertensive therapy” (J Med Chem, 1996).
Positions count from the first letter of the chain named.

Legend:
[1] = molecular target: T1, Type-2 angiotensin II receptor (Homo sapiens, UniProt P50052); assay: Inhibition of Angiotensin II receptor, type 2
T1 sequence (P50052 whole entry): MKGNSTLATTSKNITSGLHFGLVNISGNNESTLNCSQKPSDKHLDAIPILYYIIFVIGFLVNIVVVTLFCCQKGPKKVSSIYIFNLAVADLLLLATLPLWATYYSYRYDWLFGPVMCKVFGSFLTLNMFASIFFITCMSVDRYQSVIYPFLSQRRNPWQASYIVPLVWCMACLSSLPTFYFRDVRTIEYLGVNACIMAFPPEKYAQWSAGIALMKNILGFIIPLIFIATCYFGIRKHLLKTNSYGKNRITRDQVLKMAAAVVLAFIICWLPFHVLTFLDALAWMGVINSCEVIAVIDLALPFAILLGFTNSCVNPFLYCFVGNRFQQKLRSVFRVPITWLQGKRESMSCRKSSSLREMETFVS

[2] = molecular target: T2, Type-1 angiotensin II receptor (Homo sapiens, UniProt P30556); assay: (§1) Inhibition of Angiotensin II receptor, type 1
T2 sequence (P30556 whole entry): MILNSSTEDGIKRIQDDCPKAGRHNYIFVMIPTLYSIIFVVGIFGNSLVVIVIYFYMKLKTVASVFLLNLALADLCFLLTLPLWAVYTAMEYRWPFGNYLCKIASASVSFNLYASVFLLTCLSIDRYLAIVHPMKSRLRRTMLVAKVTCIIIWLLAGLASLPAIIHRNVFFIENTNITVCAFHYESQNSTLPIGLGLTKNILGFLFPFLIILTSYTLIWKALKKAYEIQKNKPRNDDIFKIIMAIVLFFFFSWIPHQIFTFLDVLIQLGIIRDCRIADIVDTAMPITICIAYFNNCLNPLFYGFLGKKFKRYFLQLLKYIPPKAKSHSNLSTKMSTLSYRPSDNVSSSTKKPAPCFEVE

Oryctolagus cuniculus = species on record: Oryctolagus cuniculus; assay: Compound was tested for its antagonistic activity against angiotensin II-induced contractions in rabbit aorta; assay type: functional
[3] = molecular target: T3, Angiotensin II receptor (AT-1) type-1 (Rattus norvegicus, UniProt P29089+P25095); assay: In vitro antagonistic potency against Angiotensin II receptor, type 1 in rat liver using [125I]-Sar1-Ile8-Ang II as radioligand; assay type: functional, tissue-based
T3 sequence (P29089 whole entry): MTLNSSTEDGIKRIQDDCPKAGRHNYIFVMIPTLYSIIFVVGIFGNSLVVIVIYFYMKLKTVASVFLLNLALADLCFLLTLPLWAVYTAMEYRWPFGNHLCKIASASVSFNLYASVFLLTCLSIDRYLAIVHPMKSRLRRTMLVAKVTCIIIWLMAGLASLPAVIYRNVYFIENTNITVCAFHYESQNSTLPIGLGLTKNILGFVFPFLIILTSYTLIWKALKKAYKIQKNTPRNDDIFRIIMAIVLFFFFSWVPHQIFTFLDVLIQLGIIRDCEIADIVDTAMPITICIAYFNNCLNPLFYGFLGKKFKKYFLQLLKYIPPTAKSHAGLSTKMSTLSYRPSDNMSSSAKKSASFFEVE
T3 sequence (P25095 whole entry): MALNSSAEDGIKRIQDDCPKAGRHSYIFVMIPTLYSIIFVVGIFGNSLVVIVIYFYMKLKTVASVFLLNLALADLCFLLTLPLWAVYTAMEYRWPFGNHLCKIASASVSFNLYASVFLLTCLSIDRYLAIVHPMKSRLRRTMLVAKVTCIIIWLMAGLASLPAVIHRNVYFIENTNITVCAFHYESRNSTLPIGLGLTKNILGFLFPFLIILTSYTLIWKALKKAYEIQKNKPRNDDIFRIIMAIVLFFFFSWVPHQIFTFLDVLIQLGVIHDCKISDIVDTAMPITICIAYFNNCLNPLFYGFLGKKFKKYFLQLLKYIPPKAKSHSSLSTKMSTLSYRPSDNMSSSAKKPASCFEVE

Rattus norvegicus [4] = species on record: Rattus norvegicus; assay: Oral effective dose required for lowering blood pressure in renal hypertensive rats (RHR); assay type: functional
[5] = molecular target: T4, Type-2 angiotensin II receptor (Rattus norvegicus, UniProt P35351); assay: Inhibitory activity at Angiotensin II type 2 receptor.
T4 sequence (P35351 whole entry): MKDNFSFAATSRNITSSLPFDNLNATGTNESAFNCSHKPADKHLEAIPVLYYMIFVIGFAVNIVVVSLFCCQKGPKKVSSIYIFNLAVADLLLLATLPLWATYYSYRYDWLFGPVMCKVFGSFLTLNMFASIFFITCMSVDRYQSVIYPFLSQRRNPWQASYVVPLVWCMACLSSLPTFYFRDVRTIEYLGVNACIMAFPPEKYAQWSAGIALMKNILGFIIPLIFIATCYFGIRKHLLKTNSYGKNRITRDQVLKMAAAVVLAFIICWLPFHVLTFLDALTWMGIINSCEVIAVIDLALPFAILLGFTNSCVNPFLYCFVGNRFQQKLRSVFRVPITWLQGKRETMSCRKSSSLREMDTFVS

[6] = molecular target: T3, Angiotensin II receptor (AT-1) type-1; assay: Inhibitory activity against Angiotensin II receptor, type 1; assay type: protein assay
[7] = molecular target: T5, Type-1 angiotensin II receptor (Oryctolagus cuniculus, UniProt P34976); assay: as §1
T5 sequence (P34976 whole entry): T2 sequence (P30556 whole entry) with I2M, V49A, I254V, I270V, R272H, R311K, T349S, A353V

[8] = molecular target: T3, Angiotensin II receptor (AT-1) type-1; assay: Inhibitory activity against Angiotensin II receptor type 1 in rat adrenal membrane; assay type: cell membranes
Rattus norvegicus [9] = assay: Intravenous effective dose required for lowering blood pressure in renal hypertensive rats (RHR); assay type: functional
[10] = molecular target: T3, Angiotensin II receptor (AT-1) type-1; assay: Inhibitory activity against Angiotensin II receptor, type 1 in rat aortic membranes; assay type: cell membranes
[11] = Oral bioavailability in rat; assay type: ADME, organism-based; conditions: in vivo
[12] = Oral bioavailability in dog; assay type: ADME, organism-based, Canis lupus familiaris; conditions: in vivo
[13] = molecular target: T3, Angiotensin II receptor (AT-1) type-1; assay: In vitro antagonistic potency against Angiotensin II receptor, type 1 in rat adrenal cortex; assay type: functional, tissue-based
[14] = molecular target: T3, Angiotensin II receptor (AT-1) type-1; assay: In vitro antagonistic potency against Angiotensin II receptor, type 1 in rat liver; assay type: functional, tissue-based
[15] = molecular target: T2, Type-1 angiotensin II receptor; assay: Ki value was evaluated against Angiotensin II receptor, type 1
[16] = molecular target: T1, Type-2 angiotensin II receptor; assay: Ki value was evaluated against Angiotensin II receptor, type 2

CCc1nc2c(C)cc(C)nc2n1Cc1ccc(-c2ccccc2S(=O)(=O)NC(=O)C(c2ccccc2)c2ccccc2)cc1
IC50 [1]: 18 nM
IC50 [2]: 0.05 nM

CCc1nc(C2CC2)c(C(N)=O)n1Cc1ccc2oc(-c3ccccc3NS(=O)(=O)C(F)(F)F)c(Br)c2c1
pKB (Oryctolagus cuniculus): 9
Log Ki [3]: -9.3

CCCC(=O)N(CCC(=O)c1c(CC)nc(CCC)n1Cc1ccc(-c2ccccc2S(=O)(=O)NC(=O)OCCC(C)C)cc1F)c1cccnc1
ED30 (Rattus norvegicus [4]): 0.27 mg/kg
IC50 [5]: 0.28 nM
IC50 ([6]; read-out: IC50): 0.26 nM

CCc1nc2c(C)cc(C)nc2n1Cc1ccc2c(ccn2C(=O)c2cccc(-c3nn[nH]n3)c2)c1
IC50 [5]: 130 nM
IC50 [7]: 5 nM

CCCc1nc(C(F)(F)C(F)(F)F)c(C(=O)O)n1Cc1ccc(-c2ccccc2-c2nn[nH]n2)cc1
ED30 (Rattus norvegicus [4]): 0.21 mg/kg
IC50 [8]: 3.1 nM
ED30 (Rattus norvegicus [9]): 0.02 mg/kg

COc1ccc2c(c1OCc1ccccc1)C[C@@H](C(=O)O)N(C(=O)C(c1ccccc1)c1ccccc1)C2 [OLODANRIGAN]
IC50 [6]: > 100000 nM

COc1ccc(Cn2cnc3c2C[C@@H](C(=O)O)N(C(=O)C(c2ccccc2)c2ccccc2)C3)cc1C
IC50 [5]: 70 nM
IC50 [6]: > 100000 nM

CCCCc1nn(-c2ccccc2C(F)(F)F)c(=O)n1Cc1ccc(-c2ccccc2S(=O)(=O)NC(=O)c2ccccc2)cc1 [L-159913]
IC50 [5]: 450 nM

Cc1ccnc2c1nc(C1CC1)n2Cc1ccc(-c2ccccc2C(=O)O)cc1
IC50 [10]: 52 nM

Cc1cc(Cn2cnc3c2C[C@@H](C(=O)O)N(C(=O)C(c2ccccc2)c2ccccc2)C3)ccc1N(C)C.O=C(O)C(F)(F)F.O=C(O)C(F)(F)F
IC50 [6]: > 100000 nM

CCCc1nc(CC)c(C=O)n1Cc1ccc(-c2ccccc2-c2nn[nH]n2)cc1
ED30 (Rattus norvegicus [4]): 0.027 mg/kg
IC50 [8]: 2.1 nM

CCCCc1nc2ccn(CC(=O)N(c3ccccc3)c3ccccc3)c(=O)c2n1Cc1ccc(-c2ccccc2-c2nnn[nH]2)cc1
IC50 [5]: 300 nM

CCCCC(=O)Nc1ccc(Br)c(-n2nc(CC)n(Cc3ccc(-c4ccccc4S(=O)(=O)NC(=O)OC(C)(C)C)cc3F)c2=O)c1
IC50 [1]: 0.12 nM
IC50 [2]: 0.2 nM

CCc1nc2c(C)cc(CO)nc2n1Cc1ccc2oc(-c3ccccc3NS(=O)(=O)C(F)(F)F)c(Br)c2c1
pKB (Oryctolagus cuniculus): 8.6

CCCCOC(=O)NS(=O)(=O)c1sc(CC(C)C)cc1-c1ccc(Cn2c(CC)nc3c(C)cc(C)nc32)cc1
IC50 [2]: 1.1 nM

CCCCc1nc(Cl)c(CC(=O)O)n1Cc1ccc(C(=O)O)cc1
ED30 (Rattus norvegicus [9]): 10 mg/kg

O=C(O)[C@@H]1Cc2cc(-c3ccccc3)ccc2CN1C(=O)C(c1ccccc1)c1ccccc1
IC50 [5]: 30 nM
IC50 [6]: > 100000 nM

CCCc1nc2c(C)c(NC(=O)c3ccccc3)cnc2n1Cc1ccc(-c2ccccc2S(=O)(=O)NC(=O)OCCC(C)C)cc1
IC50 [5]: 0.29 nM
IC50 ([6]; read-out: IC50): 0.24 nM
bioavailability [11]: 45%
bioavailability [12]: 34%

CCCCc1nc(Cl)c(CO)n1Cc1ccc(-c2ccccc2C(=O)O)cc1
ED30 (Rattus norvegicus [4]): 3.7 mg/kg

CCCCOC(=O)NS(=O)(=O)c1ccc(Cc2cccc(OC)c2)cc1-c1ccc(Cn2c(CC)nc3c(C)cc(C)nc32)cc1
IC50 [2]: 1.4 nM

CCCCCCC(C(=O)O)n1cnc(NC(=O)c2cccc(O)c2C(=O)O)c1 (stereo not drawn)
Kb (Oryctolagus cuniculus): 78 nM
Ki [13]: 4400 nM

CCCc1nc(CC)c(C(=O)OC)n1Cc1ccc(-c2ccccc2S(=O)(=O)NC(=O)OCCC(C)C)cc1F
ED50 (Rattus norvegicus [4]): 0.67 mg/kg
IC50 [1]: 1 nM
IC50 [2]: 1 nM
ED50 (Rattus norvegicus [9]): 0.48 mg/kg

CCCCc1nc2cccnc2n1Cc1ccc(-c2ccccc2-c2nnn[nH]2)cc1
IC50 [10]: 0.6 nM

CCCCc1nc(Cl)c(C(=O)O)n1Cc1ccc(-c2ccccc2-c2nn[nH]n2)cc1 [CARBOXYLIC ACID METABOLITE]
ED30 (Rattus norvegicus [4]): 0.66 mg/kg
bioavailability [11]: 12%
ED30 (Rattus norvegicus [9]): 0.04 mg/kg

CCCCOC(=O)NS(=O)(=O)c1ccc(CCC)cc1-c1ccc(Cn2c(CC)nc3c(C)cc(C)nc32)cc1
IC50 [1]: 6.1 nM
IC50 [2]: 1.5 nM

O=C(O)c1c(Oc2ccc(-c3ccccc3-c3nn[nH]n3)cc2)c(C2CC2)nc2ccccc12
Kb (Oryctolagus cuniculus): 0.061 nM
Ki [14]: 2.9 nM
F [11]: 11%

CCCCc1nc2ccc(NC(=O)NC3CCCCC3)cc2n1Cc1ccc(-c2ccccc2C(=O)O)cc1
ED30 (Rattus norvegicus [9]): ~2 mg/kg
Ki [15]: 29 nM
Ki [16]: 480 nM

Cc1cc(Cn2cnc3c2C[C@@H](C(=O)O)N(C(=O)C(c2ccccc2)c2ccccc2)C3)ccc1N
IC50 [2]: > 100000 nM

CCCc1nc(CC)c(C(=O)OCc2ccccc2C(=O)c2ccccc2)n1Cc1ccc(-c2ccccc2S(=O)(=O)NC(=O)OCCC(C)C)cc1F
ED30 (Rattus norvegicus [4]): 0.9 mg/kg
IC50 [1]: 0.69 nM
IC50 [2]: 570 nM
ED30 (Rattus norvegicus [9]): 0.05 mg/kg

CCCCc1nc2ccc(C(C)(C)OC)cc2c(=O)n1Cc1ccc(-c2ccccc2-c2nn[nH]n2)cc1 [CL-329167]
IC50 ([6]; read-out: IC50): 6 nM

CCc1nc2ccc(NC(=O)N(C)C(C)C)cc2c(=O)n1Cc1ccc(-c2ccccc2S(=O)(=O)NC(=O)OCCC2CC2)cc1F
bioavailability [11]: 23%
bioavailability [12]: 17%

CCCc1ccc2c(c1)-c1ccc(cc1)Cn1c(CCC)nc3ccc(cc3c1=O)NCCCCCCC(=O)NS2(=O)=O
IC50 [1]: 24 nM
IC50 [2]: 4 nM

CCCc1nc(CC)c(C=O)n1Cc1ccc(-c2ccccc2S(=O)(=O)NC(=O)c2ccccc2)cc1
IC50 [7]: 1.9 nM

CCCCc1nc(Cl)c(C(=O)O)n1Cc1ccc2oc(-c3ccccc3-c3nnn[nH]3)c(Br)c2c1 [ZOLASARTAN]
pKB (Oryctolagus cuniculus): 9.8
Log Ki [3]: -9
bioavailability [11]: 3%

CCCNC(=O)NS(=O)(=O)c1ccccc1-c1ccc(Cn2c(CCC)nc(SC)c2C(=O)O)cc1
IC50 [1]: 775 nM
IC50 [2]: 0.3 nM

CCCc1nc(C(F)(F)C(F)(F)F)c(C(=O)O)n1Cc1ccc(-c2ccccc2-c2nn[nH]n2)cc1Br
IC50 ([6]; read-out: IC50): 3 nM

CCCc1ccc(-c2nnn[nH]2)c(-c2ccc(Cn3c(CC)nc4c(C)cc(C)nc43)cc2)c1
IC50 [5]: 2 nM
IC50 [7]: 0.3 nM

Cc1nc(C)c2c(n1)N(Cc1ccc(-c3ccccc3-c3nnn[nH]3)cc1)C(=O)CC2 [TASOSARTAN]
ED60 (Rattus norvegicus [4]): 0.58 mg/kg

CCCc1nc2c(n1Cc1ccc(-c3ccccc3-c3nnn[nH]3)cc1)C(=O)CCCC2 [PRATOSARTAN]
IC50 [10]: 0.8 nM

CCCc1nc(CC)c(C(=O)O)n1Cc1ccc(-c2ccccc2-c2nn[nH]n2)cc1
ED30 (Rattus norvegicus [4]): 0.03 mg/kg
IC50 [8]: 6 nM
bioavailability [11]: 8%
ED30 (Rattus norvegicus [9]): 0.005 mg/kg
bioavailability [12]: 13%
